Experiment [1] has as its system extracellular DA in the NAc. Put plainly: Fiber photometry with GRABDA sensor in the NAc. The class given is in vivo, mice. The procedure: All in vivo experiments were performed in adult mice (>6 weeks old). For the photometry and microdialysis experiments, which were carried out in Florida, male C57BL/6J mice from The Jackson Laboratory (Bar Harbor, ME, USA) were group-housed in polycarbonate cages (GM500, Tecniplast, Buguggiate, Italy) with lights on from 7 a.m. to 7 p.m. Food and water were provided ad libitum. Photometry and microdialysis experiments were performed in accordance with a protocol approved by the Institutional Animal Care and Use Committee at Florida Atlantic University. […]
Mice were anesthetized with isoflurane (5% induction, 2% maintenance) and placed into a stereotaxic frame (Kopf Instruments, Tujunga, CA, USA) oriented in the flat skull position. […] Fascia was removed, coordinates for the NAc were determined relative to bregma: anterior/posterior = 1.54 mm; medial/lateral = 0.7 mm; dorsal/ventral = −4.1 mm. […]
To monitor light emitted from the G-protein coupled receptor-activation-based 5-HT (GRAB5-HT) and DA (GRABDA) sensors, fiber photometry was performed as described. […] Emitted, band-pass filtered light (500–550 nm, FMC6, Doric Lenses, Quebec,QC, Canada) was detected with a photodetector (Newport Femtowatt silicone PIN; New Focus, San Jose, CA, USA). Data were recorded using a RZ5P lock-in amplifier (Tucker-Davis Technologies, Alachua, FL, USA) controlled with Synapse software. […]

The next experiment has as its system VMATs. The experiment is described as follows: VMAT uptake inhibition assay in PC12 cells. It counts as cell-based. The conditions noted are these: all at 30 µM, relative to inhibition by 30 µM reserpine. The procedure: VMAT uptake inhibition assays were conducted as previously described, with some modifications. In brief, […] PC12 cells per well were seeded in 24-well plates the day before experimentation. The cells were pretreated with 100 nM nisoxetine and mazindol to inhibit non-specific binding. PC12 cells were then preincubated with 200 µM digitonin to permeabilize membranes and were kept at room temperature on a plate shaker at low velocity for 30 min. Cells were treated with test drugs and shaken for another 10 min. Tritiated substrate (0.05 µM [^3H]5-HT) was added, and the cells incubated on the plate shaker for 30 min. To terminate uptake, cells were transferred into 1.5 ml Eppendorf tubes, centrifuged at 5000 rpm for 5 min. The supernatant was aspirated, cells were washed with cold KHB, recentrifuged and lysed with 200 µl SDS. The solutions were transferred into vials containing 2 ml scintillation cocktail and radioactivity was determined via beta-scintillation counting (Perkin Elmer, Waltham, MA, USA). For analysis, inhibitory potency of test drugs was normalized to uptake inhibition caused by the potent VMAT inhibitor reserpine.

The test system of another experiment is C57BL/6N mice. The experiment is described as follows: Open-field test. The class given is in vivo. The conditions noted are these: indicated doses (1, 5 and 10 mg kg-1) intraperitoneal, 1 h. The procedure: (§1) All in vivo experiments were performed in adult mice (>6 weeks old). For the photometry and microdialysis experiments, which were carried out in Florida, male C57BL/6J mice from The Jackson Laboratory (Bar Harbor, ME, USA) were group-housed in polycarbonate cages (GM500, Tecniplast, Buguggiate, Italy) with lights on from 7 a.m. to 7 p.m. Food and water were provided ad libitum. Photometry and microdialysis experiments were performed in accordance with a protocol approved by the Institutional Animal Care and Use Committee at Florida Atlantic University. For the behavioral experiments, which were carried out in Vienna, C57BL/6N mice from Charles River (Sulzfeld, Germany) were group-housed in polycarbonate cages with lights on from 7 a.m. to 7 p.m. Food and water were provided ad libitum. Behavioral experiments were performed in accordance with a protocol approved by the Austrian national ethical committee on animal care and use (Bundesministerium für Wissenschaft und Forschung: BMWFW-66.009/0016-WF/V/3b/2015). All animal procedures were conducted in agreement with the ARRIVE guidelines and the U.K. Animal (Scientific Procedures) Act, 1986, and associated guidelines, EU Directive 2010/63/EU for animal experiments. Mice were given at least 1 week to acclimate before being used in any experiments.
For behavioral assays, animals were assigned to treatment groups and injected with test drugs by an unblinded observer.
Mice were placed into an open field arena (27.3 × 27.3 × 27.3 cm) surrounded by infrared beams to track movements. The total distance traveled over 1 h was recorded using Activity Monitor (Med Associates Inc., St. Albans, VT, USA) and interpreted as a measure of the psychostimulant effects. Animal sample size was confirmed using a post hoc analysis of the achieved power using G*Power3.1 [29]. Using a significance level (α) of 0.05 and an effect size f = 1.92 and a sample size of 7.5 animals (5–10)/group we achieved the commonly accepted statistical power (1−β) of 0.8.

Experiment [2] concerns extracellular 5-HT and DA in the NAc. The experiment is described as follows: In vivo microdialysis in the NAc of freely moving mice. The protocol:
as §1
Mice were anesthetized with isoflurane (5% induction, 2% maintenance) and placed into a stereotaxic frame (Kopf Instruments, Tujunga, CA, USA) oriented in the flat skull position. Ophthalmic ointment was applied to prevent drying of the eyes. Ketoprofen (10 mg kg^−1) was administered subcutaneously (s.c.), whereas bupivacaine and lidocaine were administered locally (s.c.; 100 µl of sterile saline containing 0.05% bupivacaine and 0.2% lidocaine) to the surgical site atop the head. A midline incision was made through the skin on the dorsal surface of the head to expose the skull. Fascia was removed, coordinates for the NAc were determined relative to bregma: anterior/posterior = 1.54 mm; medial/lateral = 0.7 mm; dorsal/ventral = −4.1 mm. A 1 mm burr hole was drilled through the skull. […]
Microdialysis was performed based on a previous publication. […] Dialysate samples were collected on ice and stored at −80 °C until they were analyzed using high-performance liquid chromatography with electrochemical detection. Drug-induced changes in extracellular DA and 5-HT were expressed as fold change compared to basal monoamine levels obtained during the first three pretreatment samples.

Experiment [3] deals with extracellular 5-HT in the NAc. Put plainly: Fiber photometry with GRAB5-HT sensor in the NAc of freely moving mice. The conditions noted are these: for relative GRAB5-HT fluorescence at peak versus saline: t = 700-900 s post injection, drug alone, D-FEN 10, S-4-MC 5, S-4-TFMMC 10 mg kg-1 intraperitoneal. The class given is in vivo. The protocol:
as §1
Mice were anesthetized with isoflurane (5% induction, 2% maintenance) and placed into a stereotaxic frame (Kopf Instruments, Tujunga, CA, USA) oriented in the flat skull position. Ophthalmic ointment was applied to prevent drying of the eyes. Ketoprofen (10 mg kg^−1) was administered subcutaneously (s.c.), whereas bupivacaine and lidocaine were administered locally (s.c.; 100 µl of sterile saline containing 0.05% bupivacaine and 0.2% lidocaine) to the surgical site atop the head. A midline incision was made through the skin on the dorsal surface of the head to expose the skull. Fascia was removed, coordinates for the NAc were determined relative to bregma: anterior/posterior = 1.54 mm; medial/lateral = 0.7 mm; dorsal/ventral = −4.1 mm. A 1 mm burr hole was drilled through the skull. […] For the mice used for fiber photometry, 4*10^12 genome copies of AAV9-hSyn-5-HT2h or 10^10 genome copies of AAV-hSyn-DA2m were delivered into the NAc at an infusion rate of 100 nl min^−1 (total volume of 1 µl) using a 34-gauge needle attached to a 10 µl Nanofil microsyringe (Hamilton, Reno, NV, USA), as previously described. Following injection of the virus, an optical fiber was lowered through the burr hole and secured with glass ionomer cement. Three 1.6 mm screws (00-96X1/16 39052, Plastics One Inc., Roanoke, VA, USA) were affixed to the skull to support a cement stage that was created to secure the implanted guide cannulae or optical fiber. Mice were singly housed following surgery and allowed 6 days of recovery for the microdialysis experiments or 21 days for the photometry experiments. Food and water were available ad libitum.
To monitor light emitted from the G-protein coupled receptor-activation-based 5-HT (GRAB5-HT) and DA (GRABDA) sensors, fiber photometry was performed as described. Briefly, a light emitting diode (465 nm) (CLED_465, Doric Lenses, Quebec, QC, Canada), reflected through a dichroic mirror, was coupled to an optical fiber (200 µm core/225 cladding diameter; Thorlabs, Newton, NJ, USA) that was glued to a metal ferrule (Doric Lenses, Quebec, QC, Canada) and implanted into the NAc as described above. Emitted, band-pass filtered light (500–550 nm, FMC6, Doric Lenses, Quebec,QC, Canada) was detected with a photodetector (Newport Femtowatt silicone PIN; New Focus, San Jose, CA, USA). Data were recorded using a RZ5P lock-in amplifier (Tucker-Davis Technologies, Alachua, FL, USA) controlled with Synapse software. Sinusoidal excitation was delivered at 210 Hz by an LED driver Doric Lenses, LEDD_4) at low power mode. A demodulated signal was low-pass filtered at 6 Hz and digitized at 1017 Hz. […]

[4] abbreviates: 5 mg kg-1 with or without fluoxetine 10 mg kg-1, repeated measures two-way ANOVA.

Each structure is given as a SMILES string.

In the case of `CN[C@@H](C)C(=O)c1ccc(C(F)(F)F)cc1` [S-4-TFMMC, 4-trifluoromethyl-N-methylcathinone], the “basal DA levels in the NAc (GRABDA fluorescence)” value in experiment [1] (10 mg kg-1 intraperitoneal) is listed as “neither S-4-MC, nor S-4-TFMMC significantly elevated the basal DA levels”. For the same compound, in the experiment with VMATs, the “inhibition of VMAT-mediated transport compared to MDMA” value is “significantly less effective”. In the experiment on C57BL/6N mice, the “horizontal locomotor activity (total distance traveled) in the open field test” value is “did not differ from vehicle”. The “dialysate 5-HT with co-administered fluoxetine” value in experiment [2] (10 mg kg-1 intraperitoneal plus fluoxetine 10 mg kg-1) was “fluoxetine markedly blunted the amount of dialysate 5-HT”. Further, the “extracellular 5-HT in the NAc (GRAB5-HT fluorescence)” value in experiment [3] (10 mg kg-1 intraperitoneal) is “elevated extracellular 5-HT in the NAc in a time-dependent manner”. Besides, in experiment [3] (10 mg kg-1 plus fluoxetine 10 mg kg-1 intraperitoneal), the “extracellular 5-HT in the NAc (GRAB5-HT fluorescence) with co-administered fluoxetine” value is on record as “this effect could be prevented by fluoxetine”. In addition, the “relative GRAB5-HT fluorescence at peak versus saline” value in experiment [3] is recorded as “Significant effects”.

`Cc1ccc(C(=O)[C@H](C)N)cc1` [S-4-MC, 4-methylcathinone]: the “basal DA levels in the NAc (GRABDA fluorescence)” value in experiment [1] (5 mg kg-1 intraperitoneal) is “neither S-4-MC, nor S-4-TFMMC significantly elevated the basal DA levels”. In addition, in the experiment on VMATs, the “inhibition of VMAT-mediated transport compared to MDMA” value is “significantly less effective”. Besides, the “horizontal locomotor activity (total distance traveled) in the open field test” value in the experiment with C57BL/6N mice was “did not differ from vehicle”. Further, the “dialysate 5-HT versus baseline” value in experiment [2] (5 mg kg-1 intraperitoneal, NAc) is “significantly elevated 5-HT in the dialysate”. In addition, in experiment [2] (setting [4]), the “effect of drug treatment (alone versus plus fluoxetine) on dialysate 5-HT” value is given as “drug-treatment significantly affected 5-HT in the dialysate” and the “effect of drug treatment (alone versus plus fluoxetine) on dialysate DA” value is given as “but not DA”. The “extracellular 5-HT in the NAc (GRAB5-HT fluorescence)” value in experiment [3] (5 mg kg-1 intraperitoneal) is “elevated extracellular 5-HT in the NAc in a time-dependent manner”. Moreover, in experiment [3] (5 mg kg-1 intraperitoneal, two doses 24 h apart), the “5-HT sensor response on day 1 versus day 2” value is “no significant difference”. Moreover, the “extracellular 5-HT in the NAc (GRAB5-HT fluorescence) with co-administered fluoxetine” value in experiment [3] (5 mg kg-1 plus fluoxetine 10 mg kg-1 intraperitoneal) is “this effect could be prevented by fluoxetine”. Moreover, in experiment [3], the “relative GRAB5-HT fluorescence at peak versus saline” value is recorded as “Significant effects”.

Values taken from article PMC9645344, “Serotonin-releasing agents with reduced off-target effects” (Molecular Psychiatry, 2022).
